Laboratory results as given in patent US9403815B2, “Compounds and uses thereof in modulating levels of various amyloid beta peptide alloforms” (The Regents of the University of California, priority 2010, dated 2016).
Converted amounts (≈) assume the structure as drawn. Read-outs that look alike come from different tables or passages of the source.

Key:
Aβ42 = assay: Sandwich ELISA for inhibition of Aβ42 secreted by SH-SY5Y-APP cells; format: cell-based; conditions: Homo sapiens
Protocol: (§1) The SH-SY5Y-APP human cell line was derived by transfecting a human neuroblastoma (SH-SY5Y) cell line with a plasmid expressing wild type human APP751 cDNA and selecting for stable expression of human APP and human Aβ. In each case, the levels of Aβ42 or Aβtotal or Aβ38 peptides secreted into the media of these cells were measured using either two-site monoclonal antibody (mAb)-based sandwich ELISA assays (described below for Aβ42 and Aβtotal) or in the case of Aβ38 EC50's, using either the Meso Scale Aβ38, 40, 42 triplex kit along with the Meso Scale Sector Imager 6000 according to the manufacturer's protocols. This SH-SY5Y-APP human cell line was used for all cell-based Aβ peptide immunochemical assays.
(§2) SH-SY5Y-APP cells were plated at 75,000 cells/well in 96-well tissue culture plates. After 16-18 h, the culture medium was replaced with fresh medium containing either compound or vehicle. Replicates of 3 wells per test concentration were used, with 10 concentrations at ½ log step intervals. Vehicle (0.12% DMSO) is included as a control.
The Sandwich ELISA Assay for Measuring Inhibition of Aβ42 and Determination of Aβ42 IC50 Inhibition Values
An Anti-Aβ35-42 coating monoclonal antibody which is specific for the Aβ42 peptide, stored in 60 μl aliquots at −80° C. (thaw once and discard after use).
An Anti-Aβ1-12 alkaline phosphatase-conjugated monoclonal antibody, stored at 4° C.
Anti-Aβ35-42 monoclonal antibody was diluted 1/300 in 1×TBS. After vortexing, pipette 100 μl of antibody into each well of microplate. The antibody covered the entire bottom of each well. Each microplate was covered with a plate sealer and placed at 4° C. for 19 h.
Microplates were removed from the cold room, the coating monoclonal antibody were aspirated off from all wells. Each well was rinsed once with 200 μl TBS^2. The wells were blocked by pipetting 200 μl of 1% BSA/TBS blocking solution per well and the plates incubated at room temperature for 60 minutes on a laboratory benchtop.
Sample addition to plates: Directly following the 60 min block step, blocking buffer was aspirated off and 50 μl of sample was pipetted to each well and then standard curve samples (50 μl) were added in duplicate to top 2 rows.
The plates were incubated at room temperature for 2 h.
Anti-Aβ1-12 mAb-alkaline phosphatase conjugate was diluted 1/10,000 in 1% BSA/TBS/0.1% Tween-20 and vortexed. 50 μl was pipetted into each well of the microplate.
To all plates, 50 μl of CDP-Star (Sapphire) luminescence substrate (brought to room temperature prior to use) was added to each well and incubated for 15 min at room temperature in the dark. The timer was started after finishing adding the substrate to the first plate of the group. This step was done with a group of 5 plates or less.
Each microplate was read in a Glow Runner luminometer^3.
Data Analysis (Apply to Both Aβ42 and Aβtotal Sandwich ELISA Assays):
A. Calculations • 1. Average the sample values and calculate the SD (standard deviation) and % CV (all datapoints must be <30%). If not, determine if one well is an outlier by using the Grubbs test (Graphpad website). • 2. Convert sample values to pg/well using the linear fit of the standard curve. Footnotes (Apply to Both Aβ42 and Aβtotal Sandwich ELISA Assays)

Aβtotal = assay: Sandwich ELISA for total Aβ peptides secreted by SH-SY5Y-APP cells; format: cell-based, human
Protocol: as §1, §2
The Sandwich ELISA ASSAY for Measuring Inhibition of Total Aβ Peptides and Determination of Aβtotal Peptides IC50 Inhibition Values
Anti-Aβ1-12 monoclonal antibody was diluted 1/100 in 1×TBS. Vortex. 100 μl was pipetted into each well of a microplate. The coating monoclonal antibody covered the entire bottom of each well. Each microplate was covered with a plate sealer and placed in the refrigerator overnight.
Microplates were removed from the refrigerator and each well was rinsed with 200 μl TBS. The wells were blocked by pipetting 200 μl 1% BSA/TBS per well of each microplate. The microplates were incubated at room temperature for 60 minutes.
50 μl of sample was pipetted at the appropriate dilution into designated wells of the microplates. The microplates were incubated at room temperature for 2 hrs.
The biotinylated monoclonal antibody (anti-human Amyloid Beta Protein, Clone 4G8) was diluted 1/5000 in 1% BSA/TBS/0.1% Tween-20. After vortexing, 50 μl was pipetted into each well of each microplate. The microplates were incubated at room temperature on a laboratory bench top for 1 hour.
Alkaline Phosphatase Conjugated Streptavidin was diluted 1/10,000 in 1% BSA/TBS/0.1% Tween-20. Vortex. 50 μl was pipetted into each well of microplate. The microplates were incubated at room temperature on bench top for 1 h.
After finishing washing the microplates (≦5 microplates per assay), 50 μl of CSPD-Sapphire luminescence substrate (brought room temperature prior to use) was added to each well and the wells were incubated for 15 minutes at room temperature in the dark. The timer was started after finishing of the adding of the substrate solution to the first plate of the group of microplates. […]
Plates were read in a Glow Runner luminometer. […]

Aβ38 = assay: Meso Scale Aβ38, 40, 42 triplex assay for potentiation of Aβ38 in SH-SY5Y-APP cells; format: cell-based; conditions: Homo sapiens, Meso Scale triplex kit
Protocol: as §1, §2

[1] = Solubility at pH 6.6 and pH 7.4; format: physicochemical
NOTCH = assay: Western blot of NOTCH proteolysis (NICD production) in H4-APP751 cells transfected with NδED; format: cell-based, human; conditions: 500 nM, 24 hrs
Protocol: Stable H4 human neuroglioma cells over-expressing human APP751 (H4-APP751 cells), were transfected with the NδED construct (Lanes 1-6), and then treated with vehicle (DMSO; Lanes 1-2 Control), 500 nM GSM41 (test compound), or 500 nM DAPT (Lanes 5-6 inhibitor of gamma secretase) for another 24 hrs. Additionally H4-APP751 cells were transfected with the NICD construct (as a reference of NICD; Lanes 7-8). Cells were harvested 48 hrs post transfection and subjected to Western blotting analysis. Myc antibody was utilized to assess the NδED and NICD tagged with Myc on their N-termini. β-Actin was utilized as the loading control.

[2] = pH 6.6, aqueous buffer, pH6.6, read-out: Solubility (μM) pH6.6

Compound | IC50 (Aβ42) [nM] | also measured
Cc1cn(-c2ccc(-c3csc(Nc4cc(C(C)(C)C)nn4C)n3)cc2)cn1 [Compound 27] | 250 to 500 | Total Aβ (Aβtotal): No Change
Cc1cn(-c2ccc(-c3csc(Nc4cc(C(C)(C)C)nn4C)n3)cc2F)cn1 [Compound 28] | 100 to 250 | –
COc1cc(-c2csc(Nc3cc(C(C)(C)C)nn3C)n2)ccc1-n1cnc(C)c1 [Compound 29] | 100 to 250 | –
Cc1cn(-c2ccc(-c3csc(Nc4cc(C(C)(C)C)nn4C)n3)cn2)cn1 [Compound 30] | > 500 | –
Cc1cn(-c2ccc(-c3csc(Nc4c5c(nn4C)CCCC5)n3)cc2)cn1 [Compound 31] | 100 to 250 | Total Aβ (Aβtotal): No Change
Cc1cn(-c2ccc(-c3csc(Nc4c5c(nn4C)CCCC5)n3)cc2F)cn1 [Compound 32] | 100 to 250 | –
COc1cc(-c2csc(Nc3c4c(nn3C)CCCC4)n2)ccc1-n1cnc(C)c1 [Compound 33] | 100 to 250 | –
Cc1cn(-c2ccc(-c3csc(Nc4c5c(nn4C)CCCC5)n3)cn2)cn1 [Compound 34] | > 500 | Total Aβ (Aβtotal): No Change
CCn1nc(C(C)(C)C)cc1Nc1nc(-c2ccc(-n3cnc(C)c3)cc2)cs1 [Compound 35] | 100 to 250 | –
CCn1nc(C(C)(C)C)cc1Nc1nc(-c2ccc(-n3cnc(C)c3)c(F)c2)cs1 [Compound 36] | < 100 | EC50 (Aβ38): > 500 nM; Total Aβ (Aβtotal): No Change
CCn1nc(C(C)(C)C)cc1Nc1nc(-c2ccc(-n3cnc(C)c3)c(OC)c2)cs1 [Compound 37] | < 100 | EC50 (Aβ38): 100 to 250 nM
CCn1nc(C(C)(C)C)cc1Nc1nc(-c2ccc(-n3cnc(C)c3)nc2)cs1 [Compound 38] | 250 to 500 | –
CCn1nc2c(c1Nc1nc(-c3ccc(-n4cnc(C)c4)cc3)cs1)CCCC2 [Compound 39] | > 500 | solubility [1, 2]: 2.3 µM (≈ 0.93 µg/mL)
CCn1nc2c(c1Nc1nc(-c3ccc(-n4cnc(C)c4)c(F)c3)cs1)CCCC2 [Compound 40] | 100 to 250 | –
CCn1nc2c(c1Nc1nc(-c3ccc(-n4cnc(C)c4)c(OC)c3)cs1)CCCC2 [Compound 41] | < 100 | EC50 (Aβ38): > 500 nM; solubility [1, 2]: 7.9 µM (≈ 3.43 µg/mL); solubility ([1]; pH 7.4, aqueous buffer, pH7.4, read-out: Solubility (μM) pH7.4): 6.4 µM (≈ 2.78 µg/mL); NICD levels (NOTCH proteolysis) compared to control (NOTCH): did not change NICD levels
CCn1nc2c(c1Nc1nc(-c3ccc(-n4cnc(C)c4)nc3)cs1)CCCC2 [Compound 42] | > 500 | –
COc1cc(-c2csc(Nc3cc(C(C)(C)C)nn3C(C)C)n2)ccc1-n1cnc(C)c1 [Compound 43] | 100 to 250 | –
CCCn1nc(C(C)(C)C)cc1Nc1nc(-c2ccc(-n3cnc(C)c3)c(OC)c2)cs1 [Compound 45] | < 100 | –
Cc1cn(-c2ccc(-c3csc(Nc4cc(C(C)(C)C)nn4C(C)C)n3)cc2F)cn1 [Compound 46] | < 100 | –
CCCn1nc(C(C)(C)C)cc1Nc1nc(-c2ccc(-n3cnc(C)c3)c(F)c2)cs1 [Compound 48] | < 100 | –
CCn1nc2c(c1Nc1nc(-c3ccc(-n4cnc(C)c4)c(OC)n3)cs1)CCCC2 [Compound 49] | < 100 | –
C[C@H](NC(=O)Cc1cc(F)cc(F)c1)C(=O)N[C@H](C(=O)OC(C)(C)C)c1ccccc1 [DAPT, reference compound] | – | NICD levels (NOTCH proteolysis) compared to control (NOTCH): decreased NICD levels
